Results reported in BindingDB's records for doi:10.7270/Q23N21VG (Nmmlsc, 2009).

Each compound was assayed against T1, GTPase KRas [1-37] (Homo sapiens, UniProt G3V5T7) (assay: inhibitors of GTP binding, activated Ras, SAR follow-up, biochemical, additional analogs, activated mutant, multiplex flow cytometry, Ki (AID 2043)).
T1 construct: 1-37
T1 sequence (G3V5T7 whole entry): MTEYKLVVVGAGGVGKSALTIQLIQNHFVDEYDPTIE
In the case of O=C1Nc2c(Cl)cccc2C1=C1Nc2ccccc2C1=O, the EC50 is reported as over 30 µM.
For O=C1Nc2c(Br)cccc2C1=C1Nc2ccccc2C1=O, the EC50 was over 30 µM.
In the case of O=C1Nc2c(F)cccc2C1=C1Nc2ccccc2C1=O, the EC50 is reported as over 30 µM.
For O=C1NC(=O)/C(=C2/C(=O)Nc3ccccc32)N1, the EC50 was over 30 µM.
O=C1Nc2ccc(Br)cc2C1=C1Nc2ccccc2C1=O showed an EC50 of over 30 µM.
O=C1Nc2ccccc2/C1=C1/Nc2ccccc2C1=O [2-[(3Z)-2-oxo-2,3-dihydro-1H-indol-3-ylidene]-2,3-dihydro-1H-indol-3-one] was tested, and the EC50 was over 30 µM.
In the case of O=C1N=c2ccccc2=C1c1[nH]c2ccccc2c1NO [3-[3-(hydroxyamino)-1H-indol-2-yl]-2-indolone], the EC50 is reported as over 30 µM.
O=C1N=c2ccc(Br)cc2=C1c1[nH]c2ccccc2c1NO [5-bromanyl-3-[3-(oxidanylamino)-1H-indol-2-yl]indol-2-one] gave an EC50 of over 30 µM.
Compound O=C1N=c2c(Br)cccc2=C1c1[nH]c2ccccc2c1NO [7-bromanyl-3-[3-(oxidanylamino)-1H-indol-2-yl]indol-2-one] has an EC50 of over 30 µM.
For O=C1N=c2c(Cl)cccc2=C1c1[nH]c2ccccc2c1NO [7-chloro-3-[3-(hydroxyamino)-1H-indol-2-yl]-2-indolone], the EC50 was over 30 µM.
O=C1N=c2c(F)cccc2=C1c1[nH]c2ccccc2c1NO [7-fluoro-3-[3-(hydroxyamino)-1H-indol-2-yl]-2-indolone] was tested, and the EC50 was over 30 µM.
In the case of O=C1NC(=S)N/C1=C1\C(=O)Nc2ccccc21 [(3Z)-3-(5-oxo-2-sulfanylideneimidazolidin-4-ylidene)-1H-indol-2-one], the EC50 is reported as over 30 µM.
